Results as given in the NIST ThermoML archive (doi:10.1016/j.jct.2006.03.018).

What was measured:
[1] = xn = mol fraction of the nth substance listed; conditions: 101 kPa, Liquid
[2] = refractive index (Na D-line) (dimensionless); xn = mol fraction of the nth substance listed; conditions: 101 kPa, Liquid

CCCO [propan-1-ol] + COc1ccccc1
x2 = 0
Conditions | mass density, 298.15 K [kg/m3] | mass density, 303.15 K [kg/m3] | mass density, 308.15 K [kg/m3] | refractive index, 298.15 K | refractive index, 303.15 K | refractive index, 308.15 K | speed of sound, 298.15 K [m/s] | viscosity, 298.15 K [mPa·s] | viscosity, 303.15 K [mPa·s] | viscosity, 308.15 K [mPa·s]
[1] | 799.96 | 795.93 | 791.86 | – | – | – | 1206 | 1.792 | 1.706 | 1.518
[2] | – | – | – | 1.3826 | 1.3808 | 1.3782 | – | – | – | –

COc1ccccc1 [anisole] + CCCCO
Conditions | mass density, 298.15 K [kg/m3] | mass density, 303.15 K [kg/m3] | mass density, 308.15 K [kg/m3] | refractive index, 298.15 K | refractive index, 303.15 K | refractive index, 308.15 K | speed of sound, 298.15 K [m/s] | viscosity, 298.15 K [mPa·s] | viscosity, 303.15 K [mPa·s] | viscosity, 308.15 K [mPa·s]
[1], x1 = 0.1064 | 824.95 | 820.92 | 816.89 | – | – | – | 1258 | 2.015 | 1.778 | 1.576
[1], x1 = 0.1923 | 841.43 | 837.28 | 833.12 | – | – | – | 1276 | 1.702 | 1.511 | 1.352
[1], x1 = 0.2988 | 861.78 | 857.49 | 853.21 | – | – | – | 1298 | 1.409 | 1.261 | 1.136
[1], x1 = 0.3972 | 880.06 | 875.69 | 871.31 | – | – | – | 1314 | 1.285 | 1.145 | 1.051
[1], x1 = 0.493 | 897.25 | 892.77 | 888.3 | – | – | – | 1334 | 1.129 | 1.041 | 0.939
[1], x1 = 0.5968 | 922.83 | 918.26 | 913.66 | – | – | – | 1347 | 1.063 | 0.968 | 0.886
[1], x1 = 0.7834 | 930.28 | 925.7 | 921.11 | – | – | – | 1364 | 0.985 | 0.907 | 0.844
[1], x1 = 0.8332 | 957.86 | 953.17 | 948.47 | – | – | – | 1376 | 0.968 | 0.893 | 0.824
[1], x1 = 0.892 | 969.05 | 964.35 | 959.64 | – | – | – | 1390 | 0.962 | 0.884 | 0.822
[1], x1 = 1 | 989.15 | 984.45 | 979.73 | – | – | – | 1412 | 0.988 | 0.913 | 0.854
[2], x1 = 0.1064 | – | – | – | 1.4108 | 1.4069 | 1.4031 | – | – | – | –
[2], x1 = 0.1923 | – | – | – | 1.4221 | 1.4197 | 1.4173 | – | – | – | –
[2], x1 = 0.2988 | – | – | – | 1.4354 | 1.4332 | 1.4307 | – | – | – | –
[2], x1 = 0.3972 | – | – | – | 1.4473 | 1.4449 | 1.4421 | – | – | – | –
[2], x1 = 0.493 | – | – | – | 1.4586 | 1.4563 | 1.4535 | – | – | – | –
[2], x1 = 0.5968 | – | – | – | 1.4719 | 1.4679 | 1.4651 | – | – | – | –
[2], x1 = 0.7834 | – | – | – | 1.4848 | 1.4822 | 1.4795 | – | – | – | –
[2], x1 = 0.8332 | – | – | – | 1.4911 | 1.4888 | 1.4858 | – | – | – | –
[2], x1 = 0.892 | – | – | – | 1.5027 | 1.5005 | 1.4966 | – | – | – | –
[2], x1 = 1 | – | – | – | 1.5137 | 1.5113 | 1.5088 | – | – | – | –

COc1ccccc1 [anisole] + CCCO
Conditions | mass density, 298.15 K [kg/m3] | mass density, 303.15 K [kg/m3] | mass density, 308.15 K [kg/m3] | refractive index, 298.15 K | refractive index, 303.15 K | refractive index, 308.15 K | speed of sound, 298.15 K [m/s] | viscosity, 298.15 K [mPa·s] | viscosity, 303.15 K [mPa·s] | viscosity, 308.15 K [mPa·s]
[1], x1 = 0.1036 | 816.88 | 812.68 | 808.48 | – | – | – | 1223 | 1.564 | 1.392 | 1.242
[1], x1 = 0.2003 | 835.8 | 831.49 | 827.18 | – | – | – | 1232 | 1.352 | 1.198 | 1.078
[1], x1 = 0.3055 | 856.97 | 852.54 | 848.11 | – | – | – | 1258 | 1.166 | 1.094 | 0.961
[1], x1 = 0.4053 | 876.55 | 872.04 | 867.53 | – | – | – | 1278 | 1.069 | 0.98 | 0.879
[1], x1 = 0.5096 | 897.74 | 893.14 | 888.55 | – | – | – | 1297 | 1.003 | 0.921 | 0.838
[1], x1 = 0.6015 | 915.39 | 910.74 | 906.1 | – | – | – | 1314 | 0.989 | 0.903 | 0.821
[1], x1 = 0.7071 | 934.31 | 929.62 | 924.94 | – | – | – | 1330 | 0.947 | 0.859 | 0.802
[1], x1 = 0.8023 | 952.23 | 947.51 | 942.78 | – | – | – | 1350 | 0.943 | 0.861 | 0.795
[1], x1 = 0.8939 | 970.23 | 965.5 | 960.74 | – | – | – | 1370 | 0.932 | 0.869 | 0.792
[1], x1 = 1 | 989.15 | 984.45 | 979.73 | – | – | – | 1412 | 0.988 | 0.913 | 0.854
[2], x1 = 0.1036 | – | – | – | 1.4013 | 1.3989 | 1.3966 | – | – | – | –
[2], x1 = 0.2003 | – | – | – | 1.4176 | 1.4153 | 1.4129 | – | – | – | –
[2], x1 = 0.3055 | – | – | – | 1.4284 | 1.4314 | 1.4287 | – | – | – | –
[2], x1 = 0.4053 | – | – | – | 1.4459 | 1.4458 | 1.4426 | – | – | – | –
[2], x1 = 0.5096 | – | – | – | 1.461 | 1.4578 | 1.4542 | – | – | – | –
[2], x1 = 0.6015 | – | – | – | 1.4737 | 1.4704 | 1.4673 | – | – | – | –
[2], x1 = 0.7071 | – | – | – | 1.4864 | 1.482 | 1.4793 | – | – | – | –
[2], x1 = 0.8023 | – | – | – | 1.4955 | 1.493 | 1.4897 | – | – | – | –
[2], x1 = 0.8939 | – | – | – | 1.5046 | 1.5014 | 1.499 | – | – | – | –
[2], x1 = 1 | – | – | – | 1.5137 | 1.5113 | 1.5088 | – | – | – | –
